According to BindingDB's records for doi:10.1021/jm901710h (Nerviano Medical Sciences, 2010):

Target: 3-phosphoinositide-dependent protein kinase 1, PDPK1 (Homo sapiens) (UniProt O15530)
Assay: Inhibition of PDK1

Chain of 3-phosphoinositide-dependent protein kinase 1, PDPK1 (Homo sapiens) (O15530 whole entry, looked up): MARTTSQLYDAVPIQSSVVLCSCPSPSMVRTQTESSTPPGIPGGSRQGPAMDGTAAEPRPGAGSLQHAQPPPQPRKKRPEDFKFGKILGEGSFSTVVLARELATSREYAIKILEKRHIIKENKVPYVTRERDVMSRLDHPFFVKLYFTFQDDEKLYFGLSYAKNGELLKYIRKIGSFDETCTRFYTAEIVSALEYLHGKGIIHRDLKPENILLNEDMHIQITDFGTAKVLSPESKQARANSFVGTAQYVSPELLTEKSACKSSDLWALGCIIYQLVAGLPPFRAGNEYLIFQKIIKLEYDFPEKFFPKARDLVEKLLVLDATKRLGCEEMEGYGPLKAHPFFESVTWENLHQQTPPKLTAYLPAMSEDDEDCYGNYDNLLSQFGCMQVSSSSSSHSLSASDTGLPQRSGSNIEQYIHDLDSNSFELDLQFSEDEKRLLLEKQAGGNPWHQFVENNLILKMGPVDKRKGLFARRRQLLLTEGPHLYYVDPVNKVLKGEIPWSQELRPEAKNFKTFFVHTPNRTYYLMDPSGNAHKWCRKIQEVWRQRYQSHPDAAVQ

| SMILES | IC50 |
| --- | --- |
| Cn1nc(C(N)=O)c2c1-c1nc(NC3CCN(C(=O)c4ccccc4)CC3)ncc1CC2 [1-Methyl-8-{[1-(phenylcarbonyl)piperidin-4-yl]amino}-4,5-dihydro-1H-pyrazolo[4,3-h]quinazoline-3-carboxamide] | > 10 µM |
| CC(=O)N1CCC(Nc2ncc3c(n2)-c2c(c(C(N)=O)nn2C)CC3)CC1 [8-[(1-Acetylpiperidin-4-yl)amino]-1-methyl-4,5-dihydro-1H-pyrazolo[4,3-h]quinazoline-3-carboxamide] | > 10 µM |
